# Source: US20240209353A1, “NADK2 INHIBITION IN CANCER AND FIBROTIC DISORDERS” (Memorial Sloan-Kettering Cancer Center, priority 2021, published 2024)
# Like-named read-outs stand apart in the source and are kept apart here.
# Key:
# DLD1 and T47D cells = experiment: Cell death quantification (ferroptosis sensitivity); type: cell-based
# Protocol: Cells were seeded in 96-well plates at appropriate cell densities (DLD1: 10000 cells/well, T47D: 15000 cells/well), and incubated overnight at 37° C. containing 5% CO2. Contact-inhibited MEFs were seeded in 24-well plates and incubated as described above. Cell were then subjected to treatments as described in figures. Cells were stained with Hoechst 33342 (0.1 μg/ml) to monitor total cell number, and with Sytox Green (5 nM) to monitor cell death. Culture plates were read by Cytation 5 at indicated time point. Percentage of cell death was calculated as Sytox Green-positive cell number over total cell number.
# [1] = tested on: DLD1, T47D and HaCaT cells; experiment: Western blot: GSH synthesis enzymes, peroxiredoxin oxidation; type: cell-based, human; details: 100 μM MitoPQ, 24 hours; similar extent in cells lacking NADK2 and control cells
# Text: Protein was then transferred to nitrocellulose membrane for immunoblotting.
# [2] = tested on: T47D, MCF10A, HaCaT and DLD1 cells; experiment: Cell proliferation (cell number fold change); type: cell-based, human; details: supplements at concentrations present in DMEM/F12
# Protocol: FIGS. 3A-3B show cell proliferation measured as cell number fold change (Day 4/Day 0) of T47D cells treated with sgCtrl, sgNADK2-1, or sgNADK2-2, cultured in the indicated medium and supplementation. “LA” is lipoic acid. “Pyr” is pyruvate. “Cu” is cupric sulfate. “Zn” is zinc sulfate. “B12” is vitamin B12. “A” is alanine. “D” is aspartate. “N” is asparagine. “E” is glutamate, and “P” is proline. All supplements were added at the concentrations present in DMEM/F12. […] FIGS. 3D-3F show a Western blot (FIG. 3D), proline abundance measured by GC-MS (FIG. 3E), and cell proliferation (FIG. 3F) of DMEM-cultured T47D cells treated with sgCtrl or sgNADK2-2 and ectopically expressing vector or NADK2 cDNA resistant to sgNADK2-2 mediated CRISPR-Cas9 genome editing. FIGS. 3G-3I show a Western blot (FIG. 3G), proline abundance measured by GC-MS (FIG. 3H), and cell proliferation (FIG. 3I) of DMEM-cultured T47D cells treated with sgCtrl, sgNADK2-1, or sgNADK2-2 and ectopically expressing vector or the POS5 cDNA. All error bars represent mean+SD, n=3. In FIGS. 3A-3C, 3H, and 3I, one-way ANOVA was performed. In FIGS. 3E and 3F, a two-sided t-test was performed with Welch's correction. ** P<0.01; *** P<0.001; n.s., P>0.05.
# FIGS. 8D-8H show cell proliferation measured as cell number fold change of the indicated cells with sgCtrl, sgNADK2-1, or sgNADK2-2, cultured in the indicated medium and supplementation. […]
# MEFs [3] = details: 300 μM proline added to culture medium
# Protocol: (§1) Cells were lysed in RIPA lysis buffer (Millipore 20-188) supplemented with protease inhibitors (Thermo Fisher, 78428). Protein concentration was determined by BCA protein assay (Thermo Fisher, 23228), following which equal amount of protein was loaded and separated in polyacrylamide gels. Protein was then transferred to nitrocellulose membrane for immunoblotting.
# NIH-3T3 cells = details: 0.15 mM proline in culture medium
# Protocol: as §1
# MEFs [4] = details: proline supplementation to the medium
# Protocol: In brief, confluent MEFs were grown for two days on plates coated with 0.1% gelatin in the presence of 50 μM ascorbate (Sigma, A4034) in the indicated medium. Plates were decellularized with 20 mM ammonium hydroxide/0.5% Triton X-100 for 5 min on a rotating platform. Three times the volume of PBS was added, and ECM was equilibrated overnight at 4° C., followed by four additional PBS washes. To measure collagen abundance, extracted ECM was stained with the Picro Sirius Red Stain Kit (Abcam, ab150681) according to the manufacturer's instructions. The stain was extracted with 0.1 M NaOH, and optical density was measured at 550 nm using a microplate reader. Values were normalized to the packed cell volume of cells grown on a separate plate under the same experimental conditions.
compound,measurement,setting,value
CCOc1ccccc1-n1c(C(C)N2CCN(C(=O)COc3ccc(Cl)cc3)CC2)nc2ccccc2c1=O (centres unmarked) [Erastin],cell death of cells lacking NADK2 upon ferroptosis inducer,DLD1 and T47D cells,no increase in cell death
C[n+]1ccc(-c2cc[n+](CCCCCCCCCC[P+](c3ccccc3)(c3ccccc3)c3ccccc3)cc2)cc1.[I-].[I-].[I-] [MitoParaquat],expression of enzymes involved in GSH synthesis,[1],increased
COC(=O)c1ccc([C@@H]2c3[nH]c4ccccc4c3C[C@@H](C(=O)OC)N2C(=O)CCl)cc1 [RSL3],cell death of cells lacking NADK2 upon ferroptosis inducer,"DLD1 and T47D cells; vs control cells, 24 or 48 hours",no increase in cell death
"O=C(O)[C@@H]1CCCN1 [proline, L-proline]",growth of cells lacking NADK2 in DMEM upon supplementation,[2],necessary and sufficient to restore proliferation
same,ATF4 accumulation in cells lacking NADK2,MEFs [3],blunted
same,collagen expression in cells lacking NADK2,MEFs [3],restored
same,expression of collagen protein in P5CS-deleted cells upon proline addition,NIH-3T3 cells,restored
same,collagen secretion of fibroblasts lacking NADK2 upon supplementation,MEFs [4],rescued
